Tests used:
[1] = system: 4-week old male Wistar rats; experiment: Evaluation of blood calcium concentration-decreasing activity (serum calcium after oral dosing of immature rats); assay type: in vivo, rat; settings: serum 6 hours after administration, fasted 4-week old male Wistar rats, vs normal control group
Experimental: The blood calcium concentration in a living body is strictly controlled and constantly maintained by intestinal absorption and urinary excretion and release (bone resorption) and adhesion (bone formation) in bone tissues. […] The bone resorption-suppressing activity of compounds according to the present invention was evaluated by administering the compounds to immature rats and observing decreases in blood calcium concentration as an index of the activity.
The test was conducted using 4-week old male Wistar rats fasted for 12 to 24 hours. Each compound to be tested was suspended in 0.5% methyl cellulose (MC). The suspension was orally administered to the rats at a dose of 5 mL/kg. Similarly, rats of a normal control group were administered with 0.5% MC alone. Then, blood was drawn from rat jugular vein under ether anesthesia 6 hours after the administration of each test compound or 0.5% MC. The blood was immediately centrifuged (10000 rpm, 5 minutes) at room temperature to separate serum. The calcium concentration of each serum was measured by an autoanalyzer (JEOL, JCA-BM2250). Five rats were used for each test group.
The evaluation was conducted by a comparative test with the normal control group and based on the serum calcium concentration-decreasing rate (%) calculated according to the following formula:
Serum calcium concentration-decreasing rate (%)=(([serum calcium concentration in normal control group] - [serum calcium concentration in test compound administration group])/[serum calcium concentration in normal control group])×100.

[2] = system: adjuvant arthritis model rats; experiment: Evaluation of bone density decrease-suppressing activity and anti-arthritic activity (adjuvant arthritis model); assay type: in vivo, rat; settings: oral 10 mg/kg once a day for 7 days from day 14 after adjuvant; for Paw edema-suppressing rate (%): hind paw volume on day 21, 8-week old female Lewis rats; for Bone density decrease-suppressing rate (%): thighbone bone density on day 21, 8-week old female Lewis rats
Experimental: In rheumatoid arthritis, not only swelling and pain caused by arthritis but also systemic bone mass decrease and articular destruction caused by a significant increase in bone resorption are observed.
The test was conducted using 8-week old female Lewis rats. Mycobacterium butyricum cells which were killed by heat were ground in an agate mortar, suspended in liquid paraffin sterilized by dry heat to a concentration of 2 mg/mL, and treated with ultrasound to prepare an adjuvant. Under ether anesthesia, rats in a control group other than a normal control group and rats in a test compound administration group were intradermally injected with 0.05 mL of this adjuvant each time (0.1 mL/rat in total) at two portions of the base of the tail. Starting from 14 days after the injection of the adjuvant, each rat was orally administered with 5 mL/kg of a test compound suspended in 0.5% MC once a day for 7 days. Similarly, the rats of the control group were administered with 0.5% MC alone. On the 21st day after the adjuvant injection, hind paw volumes were measured by using a paw edema volume determining device (MUROMACHI KIKAI, TK-101CMP). Then, the thighbone was biopsied. The thighbone was, after removing soft tissues, sufficiently fixed, dehydrated, and dried using ethanol. The bone density of the thighbone was measured with a bone density analyzer (Aloka, DOS-600 EX-IIIR). Five rats were used for each test group.
The evaluation was conducted by comparison tests with the normal control group and the control group and based on the bone density decrease-suppressing rate (%) and the paw edema-suppressing rate (%) calculated according to the following formulae: Bone density decrease-suppressing rate (%)=(1−([thighbone bone density in normal control group]−[thighbone bone density in test compound administration group])/([thighbone bone density in normal control group]−[thighbone bone density in control group]))×100 Paw edema-suppressing rate (%)=(1−([paw volume of test compound administration group]−[paw volume in normal control group])/([paw volume in control group]−[paw volume in normal control group]))×100

Compound | Serum calcium concentration-decreasing rate (%) ([1]; administration dose 20 mg/kg) | Paw edema-suppressing rate (%) [2] [%] | Bone density decrease-suppressing rate (%) [2] [%] | melting point [°C] | Serum calcium concentration-decreasing rate (%) ([1]; administration dose 10 mg/kg)
O=C(NCCO)/C(=C/c1ccc(OC(F)(F)F)cc1)NC(=O)c1ccc(OCCC2CC2)cc1 [Example 11, 4-(2-Cyclopropylethoxy)-N-{(Z)-1-{[(2-hydroxyethyl)amino]carbonyl}-2-[4-(trifluoromethoxy)phenyl]vinyl}benzamide] | 30.6 | 29 | 40 | – | –
CC(C)COc1ccc(C(=O)N/C(=C\c2ccc(OC(C)C)cc2)C(=O)NCCO)cn1 [Example 2-19, N-[(Z)-1-{[(2-hydroxyethyl)amino]carbonyl}-2-(4-isopropoxyphenyl)vinyl]-6-isobutoxynicotinamide] | – | – | – | 74 to 76 | –
CC(C)COc1ccc(C(=O)N/C(=C\c2ccc3ccccc3c2)C(=O)NCCO)cc1 [Example 2-6, N-[(Z)-1-{[(2-hydroxyethyl)amino]carbonyl}-2-(2-naphthyl)vinyl]-4-isobutoxybenzamide] | – | – | – | 150 to 152 | –
O=C(NCCO)/C(=C/c1ccc(OC2CC2)cc1)NC(=O)c1ccc(OCCC2CC2)cc1 [Example 16, 4-(2-Cyclopropylethoxy)-N-((Z)-2-[4-(cyclopropyloxy)phenyl]-1-{[(2-hydroxyethyl)amino]carbonyl}vinyl)benzamide] | – | 35 | 70 | – | 27.2
COc1ccc(CCOc2ccc(C(=O)N/C(=C\c3ccc(C4CC4)cc3)C(=O)NCCO)cc2)cc1 [Example 5, N-((Z)-2-(4-Cyclopropylphenyl)-1-{[(2-hydroxyethyl)amino]carbonyl}vinyl)-4-[2-(4-methoxyphenyl)ethoxy]benzamide] | – | 25 | 54 | – | 27.6
COc1ccc(CCOc2ccc(C(=O)N/C(=C\c3ccc(OC(F)(F)F)cc3)C(=O)NCCO)cc2)cc1 [Example 3, N-{(Z)-1-{[(2-Hydroxyethyl)amino]carbonyl}-2-[4-(trifluoromethoxy)phenyl]vinyl}-4-[2-(4-methoxyphenyl)ethoxy]benzamide] | – | 22 | 57 | – | –
CC(C)Oc1ccc(/C=C(\NC(=O)c2ccc(OCCc3ccc(N(C)C)cc3)cc2)C(=O)NCCO)cc1.Cl | – | – | – | 103 to 105 | –
O=C(NCCO)/C(=C/c1ccc(Cl)cc1)NC(=O)c1ccc(OCCC2CC2)cc1 [Example 14, N-((Z)-2-(4-Chlorophenyl)-1-{[(2-hydroxyethyl)amino]carbonyl}vinyl)-4-(2-cyclopropylethoxy)benzamide] | – | 12 | 86 | – | 33.2
O=C(NCCO)/C(=C/c1ccc(C2CC2)cc1)NC(=O)c1ccc(OCCC2CC2)cc1 [Example 9, 4-(2-Cyclopropylethoxy)-N-((Z)-2-(4-cyclopropylphenyl)-1-{[(2-hydroxyethyl)amino]carbonyl}vinyl)benzamide] | 29.3 | 11 | 37 | – | –
CC(C)COc1ccc(C(=O)N/C(=C\c2ccc(OC(C)C)cc2)C(=O)NCCO)c(F)c1 [Example 2-21, 2-fluoro-N-[(Z)-1-{[(2-hydroxyethyl)amino]carbonyl}-2-(4-isopropoxyphenyl)vinyl]-4-isobutoxybenzamide] | – | – | – | 51 to 54 | –
CC(C)COc1ccc(C(=O)N/C(=C\c2ccc(C(F)(F)F)nc2)C(=O)NCCO)cc1 [Example 2-16, N-{(Z)-1-{[(2-hydroxyethyl)amino]carbonyl}-2-[6-(trifluoromethyl)pyridin-3-yl]vinyl}-4-isobutoxybenzamide] | – | – | – | 184 to 187 | –

— US8143446B2, “Substituted acrylamide derivative and pharmaceutical composition comprising the same” (Daiichi Sankyo Company, Limited, priority 2005, dated 2012)
